Entries after “also recorded” stand apart in the source; their conditions may differ. Where two headings read alike, the source gives them in different places.
Tests used:
B16F10 cells [1] = assay: Scratch wound healing assay; type: cell-based, mouse; settings: 60 μM, 24 h, 1% FBS; for migration rate: Image J, triplicate
Experimental: (§1) As a next step, we tested the ability of supramolecular peptides to prevent tumor cell migration and invasion. […] Meanwhile, a scratch wound was harvested as part of the migration assay, and the healing process was observed. Based on a digital image, the areas of scratching without cells immediately following scratching and those of scratching without cells after the assay was calculated. […] We observed the same results in the transwell migration assay. Furthermore, tumor cells' invasive abilities play a critical role in metastasis. Using a transwell invasion assay (Figure 4G), we assessed the ability of HBB^plus@CA to inhibit tumor cell invasion.
(§2) Scratch wound healing assay […]
(§3) monolayer with a pipette tip (100 μL). The monolayer membrane was washed with PBS three times, […]
(§4) Detection Kit (BD Falco, China). […]
(§5) for 24 h at a concentration of 40 μM.
(§6) FITC-labeled HBB, HBBplus, and […]
(§7) it for 10 min. […] DAPI (Sigma-Aldrich,
(§8) Finally, a super-resolution confocal microscope was used to observe the cell uptake situation.

B16F10 cells [2] = assay: Transwell migration and invasion assays; type: cell-based, mouse; settings: 30 μM, 24h-48h
Experimental: as §1
performed on a Talos F200X.
The hydrodynamic size distribution (1
Zetasizer Nano ZS system). The surface chemical structure of modified nanocrystals was evaluated
(Shimadzu 3000 spectrophotometer). The structural identification of modified nanocrystals was
and 100 μg/mL streptomycin.
The in vitro cell viability was measured
containing 15% FBS medium for 24h -48h. Cells that migrated or invaded across the membrane

p-ERK1/2 = assay: Western blot, p-ERK1/2; type: cell-based, mouse; settings: B16F10 cells
[3] = system: Ki-67, β-catenin, np β-catenin, Cyclin D1, c-Myc, p-ERK1/2, N-cadherin, E-cadherin; assay: Immunohistochemistry of tumor-bearing lung sections; settings: 4 mg/kg, six cycles, score I × A, n = 5, control scored 8.3
Experimental: All samples were assayed in triplicate.
Construct a lung metastasis model of melanoma
The lung metastasis model o f melanoma was constructed as follows: B16F10 cells (5 × 10^5 cells per
100 µL) were transplanted into healthy C57BL/6 mice by intravenous injection at 5 -6 weeks of age.
After 3 days, the mice were randomly divided into the PBS control group, CA group (4 mg/kg),
HBBplus group (4 mg/kg), HBBplus@CA group (4 mg/ kg), HBBplus + CA group (4 mg/ kg) tail-vein
injected, every other day, summed six cycles. The experiment was terminated, and the mice were
euthanized. For histological examination, the tumor, liver, k idney, heart, spleen , and lung tissues
were fixed with formaldehyde, dehydrated, sliced into 4 μm sections, and subjected to H&E or
immunohistochemical staining.
H&E and immunohistochemistry (IHC) staining
Tumor-bearing lungs and primary organ tissues were dissected and immersed in formalin solution.
Then they were paraffin-embedded, sectioned with a 4 μm thick. Nextly, the sections were stained
with hematoxylin-eosin (H&E) according to standard histopathological techniques. Besides, under
conventional immunohistochemical staining, the expression of Ki -67 (Proteintech, USA; 1: 400),
β-catenin (Thermo Fisher, China; 1: 2000), np β-catenin (Cell Signaling Technology, USA; 1: 100), […]
1: 500) in tumor-bearing lungs sections were detected. […]

[4] = system: B16F10 pulmonary metastasis of melanoma; assay: Lung metastasis model of melanoma; type: in vivo; settings: 5×10^5 B16F10 cells i.v., 4 mg/kg every other day, six cycles, day 24, n = 5, mean ± s.d.; PBS group 94 ± 41
B16F10 cells [5] = assay: Cell viability, Alamar blue
Experimental: (§9) To explore the antitumor properties of HBB^plus@CA at the cellular level, we measured the viability of B16F10 cells after treatment with HBB^plus@CA.
(§10) Mouse melanoma cell line B16F10, mouse macrophage cell line RAW 264.7, and human leukemic
(§11) T-cell line Jurkat were obtained from the Chinese Academy of Science Cell Bank (Shanghai, China).
(§12) B16F10 and RAW 264.7 cells were maintained in DMEM medium, Jurkat was cultured in RPMI-
(§13) 1640 medium, and the above mediums were supplemented with 10% FBS, 100 U/mL penicillin,
(§14) and 100 μg/mL streptomycin. All cells were maintained at 37°C in an atmosphere of 5% CO2.
(§15) Melanoma cells B16F10 were inoculated uniformly in 96 empty plates according to 2000 cells.
(§16) After 24 h, different gradient concentrations of HBB plus@CA or CA, HBB, or RGDSP-X were
(§17) intervened at 37°C in an atmosphere of 5% CO 2 for 72 h. The in vitro cell viability was measured
(§18) using a standard Alamar blue (Thermo Fisher Scientific, China) assay in the B16F10 cell s.

[6] = Self-assembly into nanospheres observed by TEM; type: physicochemical; settings: peptide alone without CA
Text: The hydrophobic tails of HBB^plus interact and gather together, forming a hydrophobic core. At the same time, the hydrophilic head interacts with water molecules to wrap around the core, forming a stable micelle structure. The hydrophobic drug CA will be encapsulated in the hydrophobic area of the micelles during micellar assembly. CA is immobilized inside the micelles by interacting with the hydrophobic tails of the micelles (hydrophobic interactions and hydrogen bonding) (Figure 1D). We used the GROMACS 2018.3 software package and combined it with the MARTINI coarse-grained model (version 2.2) to conduct dynamics simulations on a system composed of 24× HBB^plus peptide molecules and 100× CA molecules in an aqueous solution during 5000 ns. […] To verify it, CA was mixed with HBB^plus in mass ratios ranging from 4:1 to 0.25:1. […] Furthermore, there was a strong positive correlation between the concentration of CA and particle size (Figure 1E). […]
Zetasizer Nano ZS system). The surface chemical structure of modified nanocrystals was evaluated […]
The in vitro cell viability was measured […]

B16F10 cells [7] = assay: Cell apoptosis by flow cytometry (FITC Annexin V/PI); type: cell-based, mouse; settings: 40 μM, 24 h
Experimental: as §2, §3, §4, §5, §6, §7, §8

B16F10 cells [8] = assay: Cell clone formation assay; type: cell-based, mouse; settings: 7 days of drug treatment
B16F10 lung metastasis = assay: Ex vivo fluorescence biodistribution in mice with pulmonary metastatic melanoma; settings: Cy5-SE labelled, i.v. 200 μL (1 mg/mL), tumor-bearing C57BL/6 mice, organs at 12 h and 24 h
[9] = system: β-catenin, np-β-catenin, c-Myc; assay: Western blot, Wnt/β-catenin pathway proteins; type: cell-based, mouse; settings: B16F10 cells, 24 h
[10] = Acute toxicity test in vivo; settings: healthy C57BL/6 mice; for body weight: every other day, six cycles
B16F10 cells [11] = system: B16F10 cells
Experimental: as §9, §10, §11, §12, §13, §14, §15, §16, §17, §18

RGDSPENPRLLGNVLVCVLA [HBB^plus]
migration in scratch assay (B16F10 cells [1]): inhibited the migration | migration rate (B16F10 cells [1]): ~ 36% | transwell migration and invasion (B16F10 cells [2]): inhibited the migration | level of p-ERK1/2 (p-ERK1/2): reduced the level; also recorded: significantly down-regulated | Ki-67 expression score (IHC) [3]: 6.2 | number of metastatic lung foci [4]: 32 ± 12 per lung | cytotoxicity / antiproliferative activity (B16F10 cells [5]; B16F10 cells, 72 h, Alamar blue): more potent antiproliferative activity | self-assembly into nanospheres [6]: incapable of undergoing such a process | apoptosis of tumor cells (B16F10 cells [7]): significantly effective in increasing the apoptosis | clone formation (B16F10 cells [8]): more potent antiproliferative activity | tumor accumulation (biodistribution) (B16F10 lung metastasis): superior tumor accumulation compared to HBB

CC(C)c1cc2c(c(O)c1O)[C@@]1(C(=O)O)CCCC(C)(C)[C@@H]1CC2 [CA, carnosic acid]
migration rate (B16F10 cells [1]): ~ 27% | β-catenin, np-β-catenin and c-Myc protein expression [9]: significantly downregulated | Ki-67 expression score (IHC) [3]: 5.7 | number of metastatic lung foci [4]: 37 ± 10 per lung | IC50 (B16F10 cells [5]; Mus musculus, B16-F10, 72 h, read-out: IC50 (cell viability)): 29.2 ± 4.68 µM | renal function tests (urea nitrogen, creatinine) ([10]; 4-40 mg/kg): did not cause severe nephrotoxicity | RBC, WBC, PLT, HGB, GRAN, Mon, Lymph in blood ([10]; 4-40 mg/kg, n = 3/group, versus controls): neither HBB^plus@CA nor CA affected | body weight ([10]; 5× doses (20 mg/kg)): notable weight loss | ALT and AST (liver function) ([10]; 10× doses (40 mg/kg)): elevations of ALT and AST | body weight ([10]; 10× doses (40 mg/kg)): notable weight loss | H&E staining of lung tissue ([10]; low-dose and high-dose groups): inflammatory cell infiltration | TNF-α, IFN-γ and EPO levels of peripheral blood ([10]; up to high dose, ELISA, n = 3/group): did not significantly increase | cytotoxicity / antiproliferative activity (B16F10 cells [11]): concentration-dependent cytotoxicity | clone formation (B16F10 cells [8]): significantly reduced the number of clones

Source: paper PMC10334834, “A de novo dual-targeting supramolecular self-assembly peptide against pulmonary metastasis of melanoma” (Theranostics, 2023)
